{"source": "patent EP4252752A1", "about": "“DRUG FOR TREATMENT OR PREVENTION OF CEREBRAL HEMORRHAGE, AND METHOD FOR TREATMENT OR PREVENTION OF CEREBRAL HEMORRHAGE USING SAID DRUG” (Biogen MA Inc., priority 2020, dated 2022)", "type_in_all_cases": "in vivo, SD rats", "key": {"Iba-1": {"test_system": "Iba-1", "experiment": "Antibody staining of brain sections with anti-Iba-1 antibodies (Example 10)", "conditions": "SMTP-7 test solution as in example 1; day 7; FIG. 28-30", "protocol": "(§1) Eight to 10 week old male SD rats (250 to 300 g body weight) were kept under a 12-hour light/dark cycle and a temperature of 22°C ± 1°C. The rats were raised in plastic cages and given free access to water and feed. The number of rats used in each experiment was n = 4 unless otherwise indicated. Moreover, a component other than those listed in the injection solution was physiological saline.\n(§2) The rats were anesthetized with isoflurane (1.5% isoflurane + 66% NO + 33% O2) and then injected with collagenase from clostridium histolyticum (type IV, made by Sigma-Aldrich) at a concentration of 0.25 U/µL at a position 3 mm lateral from the center of the brain, at bregma level in the anteroposterior direction and 5 mm behind the stria vascularis using a syringe to inject for 5 minutes at a rate of 0.2 µL/min, then the syringe needle was held at that position for 10 minutes, and then slowly withdrawn over another 10 minutes (0.5 mm per minute). Note that care was taken to prevent backflow during injection. In the following description, the day of this collagenase injection is referred to as day 0. This collagenase injection causes an intracerebral hemorrhage and the formation of a hematoma. […]"}, "[1]": {"test_system": "animal model of cerebral hemorrhage", "experiment": "Hematoma volume in brain sections, collagenase-induced intracerebral hemorrhage (Example 1)", "conditions": "2 mg/mL solution of SMTP-7 injected into the brain at 0.2 µL/min over 10 minutes, 24 hours after collagenase injection; brain sections on day 7; FIG. 1A-1C, FIG. 2", "protocol": "as §1, §2\nMoreover, the ratio of volume of hematoma to the volume of the entire brain was also measured using Imaged. […]"}, "[2]": {"test_system": "cleaved caspase-3 (Asp175)", "experiment": "Antibody staining of brain sections for cleaved caspase-3 (Example 8)", "conditions": "SMTP-7 test solution as in example 1, cerebral cortex, day 7, FIG. 22-24", "protocol": "as §1, §2"}, "[3]": {"test_system": "animal model of cerebral hemorrhage", "experiment": "Evans blue staining of brain sections, collagenase-induced intracerebral hemorrhage (Example 2)", "conditions": "SMTP-7 test solution as in example 1; 2% Evans blue into tail vein 1 hour before sacrifice, day 7; FIG. 3A-3D, 4, 5", "protocol": "as §1\nas §2, with “minute).” for “minute). Note that care was taken to prevent backflow during injection. In the following description, the day of this collagenase injection is referred to as day 0. This collagenase injection causes an intracerebral hemorrhage and the formation of a hematoma.”\nThe same experiment as in example 1 was performed again. […] Micrographs of whole brains and 3 mm thick sections are illustrated in FIG. 3A to FIG. 3D, and the total area (mm^2) of Evans blue-stained region and staining density determined from the sections using Imaged are shown in FIG. 4 and FIG. 5. […] In FIG. 5, the vertical axis represents the concentration value of Evans blue expressed as absorbance at a wavelength of 620 nm."}, "[4]": {"test_system": "animal model of cerebral hemorrhage", "experiment": "Small animal MRI (T2-weighted) of hematoma and edema, collagenase-induced intracerebral hemorrhage (Example 3)", "conditions": "SMTP-7 test solution as in example 1", "protocol": "as §1\nas §2, with “0.” for “0. This collagenase injection causes an intracerebral hemorrhage and the formation of a hematoma.”\nCollagenase injection and test solution injection were performed as in example 1, and rat brains were measured by small animal MRI on days 1 and 7 after collagenase injection (PharmaScan made by Bruker BioSpin). […] The volume of hematomas was measured based on these MRI measurements using Imaged. […]"}, "GFAP": {"test_system": "GFAP", "experiment": "Antibody staining of brain sections with anti-GFAP antibodies (Example 9)", "conditions": "SMTP-7 test solution as in example 1; day 7; FIG. 25-27", "protocol": "as §1, §2"}, "[5]": {"test_system": "animal model of cerebral hemorrhage", "experiment": "Barnes maze test, collagenase-induced intracerebral hemorrhage (Example 4)", "conditions": "SMTP-7 test solution as in example 1; day 7 to day 10 after collagenase injection; FIG. 11-15", "protocol": "as §1\nas §2, with “0.” for “0. This collagenase injection causes an intracerebral hemorrhage and the formation of a hematoma.”\nCollagenase injection and test solution injection were performed as in example 1, and a Barnes maze test (Barnes maze test) was performed on day 7 after collagenase injection. […] The time it took to reach the escape box and the number of holes where the rats incorrectly stayed at were evaluated. […]"}, "[6]": {"test_system": "animal model of cerebral hemorrhage", "experiment": "Luxol fast blue and Cresyl violet double staining, myelin density in white matter (Example 7)", "conditions": "SMTP-7 test solution as in example 1; ipsilateral, contralateral and central sites; day 7; FIG. 19-21", "protocol": "as §1, §2"}, "[7]": {"test_system": "animal model of cerebral hemorrhage", "experiment": "LAN cable walking test of motor function, collagenase-induced intracerebral hemorrhage (Example 5)", "conditions": "SMTP-7 test solution as in example 1; observed for 60 seconds on LAN cable; FIG. 16", "protocol": "as §1, §2\nCollagenase injection and test solution injection were performed as in example 1, and the motor function of rats was evaluated by having the rats walk on a local area network (LAN) cable. […]"}, "[8]": {"test_system": "animal model of cerebral hemorrhage", "experiment": "Hematoxylin-eosin (HE) staining of brain sections, hematoma area (Example 6)", "conditions": "SMTP-7 test solution as in example 1; sections on day 7 after collagenase injection; FIG. 17-18", "protocol": "as §1, §2"}}}
{"smiles": "CC(C)=CCC/C(C)=C/CC[C@]1(C)Oc2c(c(O)cc3c2CN(CCC[C@@H](C(=O)O)N2Cc4c(cc(O)c5c4O[C@@](C)(CC/C=C(\\C)CCC=C(C)C)[C@@H](O)C5)C2=O)C3=O)C[C@@H]1O", "note": "[SMTP-7]", "values": [{"measurement": "inflammation: immunostaining using antibodies against Iba-1, number of immunopositive cells", "setting": "Iba-1", "result": "significantly suppressed"}, {"measurement": "ratio of volume of hematoma to the volume of the entire brain", "setting": "[1]", "result": "marked reduction in hematoma"}, {"measurement": "number of cells expressing caspase-3 (immunopositive cells per 100 µm^2 of ROI), contralateral", "setting": "[2]; contralateral to collagenase injection", "result": "markedly reduced"}, {"measurement": "number of cells expressing caspase-3 (immunopositive cells per 100 µm^2 of ROI), ipsilateral", "setting": "[2]; ipsilateral to collagenase injection", "result": "markedly reduced"}, {"measurement": "hematoma: total area of Evans blue-stained region and staining density", "setting": "[3]", "result": "marked reduction in hematoma"}, {"measurement": "volume ratio of hematoma in the T2-weighted MRI image", "setting": "[4]; MRI on days 1 and 7 after collagenase injection, FIG. 6-8", "result": "marked reduction in both hematoma and edema"}, {"measurement": "ratio of cerebral edema volume in brain volume (MRI)", "setting": "[4]; day 7 after collagenase injection, FIG. 9-10", "result": "marked reduction in both hematoma and edema"}, {"measurement": "neuron damage: immunostaining using antibodies against GFAP, number of immunopositive cells", "setting": "GFAP", "result": "significantly suppressed"}, {"measurement": "learning ability: time required to reach the escape box and number of incorrect holes", "setting": "[5]", "result": "marked improvement in learning ability"}, {"measurement": "white matter lesions (demyelination): myelin density in white matter", "setting": "[6]", "result": "marked suppression of hematoma lesions"}, {"measurement": "motor ability: total score (0 to 10) in LAN cable walking test", "setting": "[7]", "result": "marked improvement in motor ability"}, {"measurement": "area of the hematoma region identified by HE staining", "setting": "[8]", "result": "marked reduction in hematoma"}]}
